Source: ChEMBL document CHEMBL3352801, “Synthesis and lipid-lowering evaluation of 3-methyl-1H-purine-2,6-dione derivatives as potent and orally available anti-obesity agents” (Eur J Med Chem, 2014)
Activity calls are given as the source filed them. The calls are words filed in the database; no cut-off is given here.

Legend:
Mus musculus [1] = assay: Increase in glucose tolerance in diet-induced obese C57Bl/6 mouse assessed as induction of insulin secretion at 150 mg/kg/day, po for 4 weeks by oral glucose tolerance test; assay type: functional, organism-based
Mus musculus [2] = assay: Antiobesity activity in diet-induced obese C57Bl/6 mouse assessed as reduction in body weight at 150 mg/kg/day, po for 4 weeks administered with high-fat diet; assay type: functional; parameters: scale not given: the % may be the effect or the level left
Mus musculus [3] = assay: Antiobesity activity in diet-induced obese C57Bl/6 mouse assessed as reduction in triglyceride level at 150 mg/kg/day, po for 4 weeks administered with high-fat diet (reference value: 0.96 +/- 0.14 mM); assay type: functional
Mus musculus [4] = assay: Antiobesity activity in diet-induced obese C57Bl/6 mouse assessed as reduction in LDL level at 150 mg/kg/day, po for 4 weeks administered with high-fat diet (reference value: 0.13 +/- 0.02 mM); assay type: functional
Mus musculus [5] = assay: Antiobesity activity in diet-induced obese C57Bl/6 mouse assessed as reduction in FFA level at 150 mg/kg/day, po for 4 weeks administered with high-fat diet (reference value: 19.55 +/- 1.57 ng/L); assay type: functional
Mus musculus [6] = assay: Antiobesity activity in diet-induced obese C57Bl/6 mouse assessed as increase in HDL level at 150 mg/kg/day, po for 4 weeks administered with high-fat diet (reference value: 1.02 +/- 0.13 mM); assay type: functional
Mus musculus [7] = assay: Antiobesity activity in diet-induced obese C57Bl/6 mouse assessed as loss of epididymal fat mass at 150 mg/kg/day, po for 4 weeks administered with high-fat diet; assay type: functional
Mus musculus [8] = assay: Antiobesity activity in diet-induced obese C57Bl/6 mouse assessed as reduction in hepatic triglyceride level at 150 mg/kg/day, po for 4 weeks administered with high-fat diet by Oil Red O staining-based histological method; assay type: functional; parameters: scale not given: the % may be the effect or the level left
Mus musculus [9] = assay: Antiobesity activity in diet-induced obese C57Bl/6 mouse assessed as reduction in fasting blood glucose at 150 mg/kg/day, po for 4 weeks administered with high-fat diet (reference value: 4.88 +/- 0.75 mM); assay type: functional
Mus musculus [10] = assay: Antiobesity activity in diet-induced obese C57Bl/6 mouse assessed as change in insulin level at 150 mg/kg/day, po for 4 weeks administered with high-fat diet (reference value: 11.85 +/- 2.6 mU); assay type: functional
Mus musculus [11] = assay: Antiobesity activity in diet-induced obese C57Bl/6 mouse assessed as increase in HDL level at 150 mg/kg/day, po for 4 weeks administered with high-fat diet (reference value: 0.60 +/- 0.17 mM); assay type: functional
Mus musculus [12] = assay: Antiobesity activity in diet-induced obese C57Bl/6 mouse assessed as loss of liver weight at 150 mg/kg/day, po for 4 weeks administered with high-fat diet; assay type: functional
Mus musculus [13] = assay: Antiobesity activity in diet-induced obese C57Bl/6 mouse assessed as reduction in LDL level at 150 mg/kg/day, po for 4 weeks administered with high-fat diet (reference value: 0.14 +/- 0.07 mM); assay type: functional
Mus musculus [14] = assay: Antiobesity activity in diet-induced obese C57Bl/6 mouse assessed as reduction in fasting blood glucose at 150 mg/kg/day, po for 4 weeks administered with high-fat diet (reference value: 5.0 +/- 1.30 mM); assay type: functional
Mus musculus [15] = assay: Antiobesity activity in diet-induced obese C57Bl/6 mouse assessed as reduction in FFA level at 150 mg/kg/day, po for 4 weeks administered with high-fat diet (reference value: 25.07 +/- 3.49 ng/L); assay type: functional
Mus musculus [16] = assay: Decrease in insulin resistance in diet-induced obese C57Bl/6 mouse at 150 mg/kg/day, po for 4 weeks by insulin tolerance test; assay type: functional, organism-based
Mus musculus [17] = assay: Antiobesity activity in diet-induced obese C57Bl/6 mouse assessed as reduction in HOMA-IR value at 150 mg/kg/day, po for 4 weeks administered with high-fat diet (reference value: 0.94 +/- 0.23 no_unit); assay type: functional
Mus musculus [18] = assay: Antiobesity activity in diet-induced obese C57Bl/6 mouse assessed as reduction in triglyceride level at 150 mg/kg/day, po for 4 weeks administered with high-fat diet (reference value: 0.93 +/- 0.09 mM); assay type: functional
Mus musculus [19] = assay: Antiobesity activity in diet-induced obese C57Bl/6 mouse assessed as change in insulin level at 150 mg/kg/day, po for 4 weeks administered with high-fat diet (reference value: 4.31 +/- .82 mU); assay type: functional

With `CN(C)C(=N)NC(=N)N` [METFORMIN] the Activity (Mus musculus [1]) was “Active”, the Activity (Mus musculus [2]) was 19.08% and the Activity (Mus musculus [3]) was 1.07 mM. The Activity (Mus musculus [4]) was 0.17 mM, the Activity (Mus musculus [5]) was 21.56 ng/L and the Activity (Mus musculus [6]) was 1.38 mM. The Activity (Mus musculus [7]) was 22.94%, the Activity (Mus musculus [8]) was 10.73% and the Activity (Mus musculus [9]) was 7.57 mM. For the same molecule, the Activity (Mus musculus [10]) was 8.1 mU, the Activity (Mus musculus [11]) was 0.82 mM and the Activity (Mus musculus [12]) was 23.2%. The Activity (Mus musculus [13]) was 0.12 mM, the Activity (Mus musculus [14]) was 5.32 mM and the Activity (Mus musculus [15]) was 26.05 ng/L. For the same molecule, the Activity (Mus musculus [16]) was “Active”, the Activity (Mus musculus [17]) was 1.73 and the Activity (Mus musculus [18]) was 0.92 mM. For the same molecule, the Activity (Mus musculus [19]) was 5.48 mU.
